The text below walks through data of US7842683B2, “Neurotherapeutic compositions and method” (Revaax Pharmaceuticals, LLC, priority 1999, dated 2010).

The subject of one data set is bacteria. Particulars: cited from earlier work.
For a further data set, the system named is hamsters. Briefly: Motor activity in an open field (hamsters). It is filed as in vivo, Syrian golden hamsters (Mesocricetus auratus). The conditions noted are these: 50 μg/kg, 90 min after injection. The method, then:
Six animals were tested for general motor activity in an “open field” following treatment with saline vehicle or 50 μg/kg Mox (FIG. 5). The study was counter balanced with each animal receiving each treatment. Ninety minutes after injection a single animal was placed into a large clean Plexiglas cage (48×32×40 cm) devoid of any bedding. This open field was delineated into equal quadrants by tape on the underside of the cage. Animals were scored for motor activity by counting the number of quadrants traversed in 1 min.

In the next data set the test system is male hamsters. Kind of data set: Radial arm maze (spatial memory). The data set is classed as in vivo. The conditions noted are these: 50 μg/kg. From the text: The radial arm maze is one of the most commonly used methods for testing spatial learning and memory in rodents. Developed by Olton and co-workers (1976), it provides the simultaneous choice of several alternative paths for the test subject. Animals must learn which locations provide food (place learning) using visuospatial cues. Experimental Trials: The experimental trials consist of three phases (described below). The arms of the maze are numbered clock-wise from one to seven with arm number one being the arm furthest to the right side of the maze. All trials are […]. When not being tested, all hamsters have unlimited access to water. […] Trials within all the phases are conducted on successive days. Phase One: Phase One consists of five 15 min trials. Prior to the beginning of each of the five trials in Phase One, four sunflower seeds are placed at the ends of arms one, two, and three. Arms four, five, six, and seven remain empty. Phase Two: Phase Two of the experimental trials are identical to Phase One except that the seeds are placed in arms two, four, and seven. […] Coding of Behaviors: An arm entry was scored if all four paws of a hamster crossed an arm threshold. A full arm entry into an arm is scored if a hamster's snout touches the top of the block at the end of an arm or if their snout passes the block. […] In addition, the number of seeds pouched by the hamsters was scored. […]

Each structure is given as a SMILES string.

`O=C(O)[C@H]1/C(=C/CO)O[C@@H]2CC(=O)N21` [CLAV, Clavulanic acid]: the antibacterial activity entry in the data set with bacteria is reported as “weak antibacterial activity”.
As to `CO[C@@]1(NC(=O)C(C(=O)O)c2ccc(O)cc2)C(=O)N2C(C(=O)O)=C(CSc3nnnn3C)CO[C@@H]21` (stereo partly drawn) [Mox, 7-β-[2-carboxy-2-(4-hydroxyphenyl)acetamido]-7α-methoxy-3-[[(1-methyl-1H-tetrazol-5-yl)thio]methyl]-1-oxa-1-dethia-3-cephem-4-carboxylic acid], in the data set on hamsters, the “open field activity (quadrants traversed in 1 min)” value is given as “no significant difference”. The “number of seeds discovered after reversing the orientation of the maze” value in the data set with male hamsters was “significantly increased”.
